Data on six molecules can be found in ChEMBL document CHEMBL2086297, “Reduced pulmonary surfactant interaction of daptomycin analogs via tryptophan replacement with alternative amino acids” (2012).

SMILES strings stand for the structures. In brackets after ≈: the same amount, converted by molar mass.

What all share (type): functional
Assay [1] concerns Staphylococcus aureus. The experiment in a line: Antibacterial activity against methicillin-susceptible Staphylococcus aureus ATCC 29213 grown on calcium supplemented Mueller-Hinton broth by broth microdilution method. Background: Dilution methods test growth across graded concentrations, often in twofold steps.
For assay [2], the system named is Staphylococcus aureus. The experiment in a line: Antibacterial activity against methicillin-susceptible Staphylococcus aureus ATCC 29213 by broth microdilution method in presence of 1% pulmonary surfactant. The following applies: ATCC 29213, Pulmonary surfactant.
The subject of assay [3] is Staphylococcus aureus. In words: Antibacterial activity against methicillin-susceptible Staphylococcus aureus ATCC 29213 by broth microdilution method in presence of 5% pulmonary surfactant. Particulars: ATCC 29213, Pulmonary surfactant.
Assay [4] concerns Staphylococcus aureus. In words: Antibacterial activity against methicillin-susceptible Staphylococcus aureus ATCC 29213 by broth microdilution method in presence of 4% human serum albumin.
Another assay concerns Streptococcus pneumoniae. The experiment in a line: Antibacterial activity against Streptococcus pneumoniae.

Take `CCCCCCCCCC(=O)N[C@@H](Cc1c[nH]c2ccccc12)C(=O)N[C@H](CC(N)=O)C(=O)N[C@@H](CC(=O)O)C(=O)N[C@@H]1C(=O)NCC(=O)N[C@@H](CCCN)C(=O)N[C@@H](CC(=O)O)C(=O)N[C@H](C)C(=O)N[C@@H](CC(=O)O)C(=O)NCC(=O)N[C@H](CO)C(=O)N[C@@H]([C@H](C)CC(=O)O)C(=O)N[C@@H](CC(=O)c2ccccc2N)C(=O)O[C@@H]1C`: the MIC with Staphylococcus aureus [1] is 1 µg/mL (≈ 0.617 µM); in the assay on Staphylococcus aureus [2], 16 µg/mL; with Staphylococcus aureus [3], above 32 µg/mL; with Staphylococcus aureus [4], 2 µg/mL. Also, in the assay on Streptococcus pneumoniae, the MIC90 worked out at 0.06 µg/mL (≈ 0.037 µM).

On to `CCCCCCCCCC(=O)N[C@@H](Cc1ccsc1)C(=O)N[C@@H](CC(N)=O)C(=O)N[C@@H](CC(=O)O)C(=O)N[C@@H]1C(=O)NCC(=O)N[C@@H](CCCN)C(=O)N[C@@H](CC(=O)O)C(=O)N[C@H](C)C(=O)N[C@@H](CC(=O)O)C(=O)NCC(=O)N[C@H](CO)C(=O)N[C@@H]([C@@H](C)CC(=O)O)C(=O)N[C@@H](CC(=O)c2ccccc2N)C(=O)O[C@@H]1C`, for which the MIC in the assay with Staphylococcus aureus [1] was 4 µg/mL (≈ 2.52 µM); in the assay with Staphylococcus aureus [2], 8 µg/mL; in the assay with Staphylococcus aureus [3] it was 16 µg/mL; in the assay on Staphylococcus aureus [4] it was 32 µg/mL.

For the molecule `CCCCCCCCCC(=O)N[C@@H](Cc1ccccc1)C(=O)N[C@@H](CC(N)=O)C(=O)N[C@@H](CC(=O)O)C(=O)N[C@@H]1C(=O)NCC(=O)N[C@@H](CCCN)C(=O)N[C@@H](CC(=O)O)C(=O)N[C@H](C)C(=O)N[C@@H](CC(=O)O)C(=O)NCC(=O)N[C@H](CO)C(=O)N[C@@H]([C@@H](C)CC(=O)O)C(=O)N[C@@H](CC(=O)c2ccccc2N)C(=O)O[C@@H]1C`, the MIC was determined as 2 µg/mL (≈ 1.26 µM) with Staphylococcus aureus [1], 4 µg/mL with Staphylococcus aureus [2], 8 µg/mL with Staphylococcus aureus [3] and 4 µg/mL in the assay on Staphylococcus aureus [4].

Turning to `CCCCCCCCCC(=O)N[C@@H](Cc1ccc(OC)c(OC)c1)C(=O)N[C@@H](CC(N)=O)C(=O)N[C@@H](CC(=O)O)C(=O)N[C@@H]1C(=O)NCC(=O)N[C@@H](CCCN)C(=O)N[C@@H](CC(=O)O)C(=O)N[C@H](C)C(=O)N[C@@H](CC(=O)O)C(=O)NCC(=O)N[C@H](CO)C(=O)N[C@@H]([C@@H](C)CC(=O)O)C(=O)N[C@@H](CC(=O)c2ccccc2N)C(=O)O[C@@H]1C`, the MIC in the assay with Staphylococcus aureus [1] is 16 µg/mL (≈ 9.75 µM); in the assay on Staphylococcus aureus [2] it was 16 µg/mL; with Staphylococcus aureus [3] it was 16 µg/mL; in the assay on Staphylococcus aureus [4], 32 µg/mL.

Turning to `CCCCCCCCCC(=O)N[C@@H](Cc1ccc(OCC)cc1)C(=O)N[C@@H](CC(N)=O)C(=O)N[C@@H](CC(=O)O)C(=O)N[C@@H]1C(=O)NCC(=O)N[C@@H](CCCN)C(=O)N[C@@H](CC(=O)O)C(=O)N[C@H](C)C(=O)N[C@@H](CC(=O)O)C(=O)NCC(=O)N[C@H](CO)C(=O)N[C@@H]([C@@H](C)CC(=O)O)C(=O)N[C@@H](CC(=O)c2ccccc2N)C(=O)O[C@@H]1C`, the MIC in the assay with Staphylococcus aureus [1] came to 4 µg/mL (≈ 2.46 µM); in the assay with Staphylococcus aureus [2] it was 4 µg/mL; in the assay with Staphylococcus aureus [3], 16 µg/mL; with Staphylococcus aureus [4], 8 µg/mL.

As for `CCCCCCCCCC(=O)N[C@@H](Cc1ccc(F)cc1)C(=O)N[C@@H](CC(N)=O)C(=O)N[C@@H](CC(=O)O)C(=O)N[C@@H]1C(=O)NCC(=O)N[C@@H](CCCN)C(=O)N[C@@H](CC(=O)O)C(=O)N[C@H](C)C(=O)N[C@@H](CC(=O)O)C(=O)NCC(=O)N[C@H](CO)C(=O)N[C@@H]([C@@H](C)CC(=O)O)C(=O)N[C@@H](CC(=O)c2ccccc2N)C(=O)O[C@@H]1C`, the minimal inhibitory concentration (MIC) with Staphylococcus aureus [1] stood at 2 µg/mL (≈ 1.25 µM); in the assay with Staphylococcus aureus [2], 8 µg/mL; in the assay with Staphylococcus aureus [3], 16 µg/mL; in the assay with Staphylococcus aureus [4], 8 µg/mL.

What is called MIC is the lowest concentration found to suppress growth. In general, MIC90 refers to an inhibitory concentration at the 90% level, which refers to growth in some studies and to a panel of isolates in others. Low values mean greater potency, high ones weaker potency.
